In this assay the target is GCN2 (Homo sapiens, UniProt Q9P2K8). In words: GCN2 enzymatic endpoint assay: phosphorylation of GFP-eIF2α measured by TR-FRET (Lanthascreen). Format: biochemical. The conditions noted are these: tested as described in Example 77; compound and/or hydrochloride, dihydrochloride or trifluoroacetic acid salt; read-out: IC 50 Activity. The method in brief: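 Endpoint kinase reaction with 2 μM ATP and 80 nM GFP-labelled eIF2α substrate, run at room temperature for 90 min, then stopped with EDTA. Phospho-substrate detected by terbium-antibody TR-FRET, activity taken as the 520/495 nm emission ratio.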
GCN2, sequence (Q9P2K8 whole entry): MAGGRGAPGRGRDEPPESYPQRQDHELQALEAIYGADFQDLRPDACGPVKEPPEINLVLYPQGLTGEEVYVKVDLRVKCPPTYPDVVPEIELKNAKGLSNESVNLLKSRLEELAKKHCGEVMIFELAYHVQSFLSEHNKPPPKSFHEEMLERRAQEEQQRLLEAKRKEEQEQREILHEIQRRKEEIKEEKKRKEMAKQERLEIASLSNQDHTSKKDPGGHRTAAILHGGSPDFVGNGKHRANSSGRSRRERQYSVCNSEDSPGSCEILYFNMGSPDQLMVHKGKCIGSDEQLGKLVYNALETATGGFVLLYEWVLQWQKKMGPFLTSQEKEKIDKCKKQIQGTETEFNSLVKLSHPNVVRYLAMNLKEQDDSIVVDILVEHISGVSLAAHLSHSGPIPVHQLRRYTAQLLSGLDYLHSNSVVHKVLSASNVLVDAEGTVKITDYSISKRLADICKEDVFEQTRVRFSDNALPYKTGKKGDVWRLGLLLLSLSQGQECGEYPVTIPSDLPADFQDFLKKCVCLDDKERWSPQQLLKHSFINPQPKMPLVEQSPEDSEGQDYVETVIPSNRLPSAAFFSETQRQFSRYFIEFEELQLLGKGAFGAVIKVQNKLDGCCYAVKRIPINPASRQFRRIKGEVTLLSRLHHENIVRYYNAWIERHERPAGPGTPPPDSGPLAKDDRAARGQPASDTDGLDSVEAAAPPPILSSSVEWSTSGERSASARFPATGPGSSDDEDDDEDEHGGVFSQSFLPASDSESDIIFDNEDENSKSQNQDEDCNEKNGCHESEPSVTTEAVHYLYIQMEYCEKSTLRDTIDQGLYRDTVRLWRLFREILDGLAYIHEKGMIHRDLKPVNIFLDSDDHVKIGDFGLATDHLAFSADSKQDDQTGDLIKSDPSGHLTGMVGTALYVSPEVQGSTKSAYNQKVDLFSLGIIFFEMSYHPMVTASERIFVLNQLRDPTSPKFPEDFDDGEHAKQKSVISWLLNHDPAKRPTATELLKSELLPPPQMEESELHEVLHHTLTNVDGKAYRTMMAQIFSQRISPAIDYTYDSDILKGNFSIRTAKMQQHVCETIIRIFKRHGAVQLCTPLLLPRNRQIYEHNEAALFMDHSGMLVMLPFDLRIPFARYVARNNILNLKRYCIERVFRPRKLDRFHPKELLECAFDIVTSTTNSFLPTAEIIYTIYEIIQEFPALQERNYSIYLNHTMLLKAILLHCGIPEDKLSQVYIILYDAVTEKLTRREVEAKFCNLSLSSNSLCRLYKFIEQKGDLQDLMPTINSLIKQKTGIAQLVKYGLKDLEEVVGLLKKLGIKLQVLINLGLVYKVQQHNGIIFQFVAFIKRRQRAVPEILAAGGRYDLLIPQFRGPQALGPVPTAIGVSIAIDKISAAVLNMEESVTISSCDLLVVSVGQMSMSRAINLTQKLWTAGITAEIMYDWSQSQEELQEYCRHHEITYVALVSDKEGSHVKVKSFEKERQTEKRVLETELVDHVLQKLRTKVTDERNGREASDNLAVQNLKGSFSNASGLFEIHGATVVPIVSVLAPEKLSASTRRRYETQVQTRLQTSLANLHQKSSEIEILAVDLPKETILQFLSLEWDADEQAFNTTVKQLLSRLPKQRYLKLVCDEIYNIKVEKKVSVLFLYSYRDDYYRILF

Take `CN1CN(C(=O)[C@@H]2CC[C@@H](Nc3ncc4c(Br)nn(-c5cc(C#N)c6ncccc6c5)c4n3)C2)CC1=O` [6-(3-bromo-6-(((1R,3R)-3-(3-methyl-4-oxo-imidazolidine-1-carbonyl)cyclopentyl)amino)-1H-pyrazolo[3,4-d]pyrimidin-1-yl) quinoline-8-carbonitrile]: the IC50 is 0.025 to 0.2 µM.
Under `N#Cc1cc(-n2nc(Br)c3cnc(N[C@@H]4CC[C@@H](C(=O)N5CCNC(=O)C5)C4)nc32)cc2cccnc12` [6-(3-bromo-6-(((1R,3R)-3-(3-oxopiperazine-1-carbonyl)cyclopentyl)amino)-1H-pyrazolo [3,4-d]pyrimidin-1-yl)quinoline-8-carbonitrile] stands under 0.025 µM; under `N#Cc1cc(-n2nc(Br)c3cnc(N[C@@H]4CC[C@@H](C(=O)N5CCN(C(=O)CO)CC5)C4)nc32)cc2cccnc12` [6-(3-bromo-6-(((1R,3R)-3-(4-(2-hydroxyacetyl)piperazine-1-carbonyl)cyclopentyl)amino)-1H-pyrazolo[3,4-d]pyrimidin-1-yl)quinoline-8-carbonitrile], 0.025 to 0.2 µM; under `N#Cc1cc(-n2nc(Br)c3cnc(N[C@@H]4CC[C@@H](C(=O)N5CCN(C(=O)C6CC6)CC5)C4)nc32)cc2cccnc12` [6-(3-bromo-6-(((1R,3R)-3-(4-(cyclopropanecarbonyl)piperazine-1-carbonyl)cyclopentyl)amino)-1H-pyrazolo [3,4-d]pyrimidin-1-yl)quinoline-8-carbonitrile], 0.025 to 0.2 µM.
In the case of `CN1CCN(C(=O)[C@@H]2CC[C@@H](Nc3ncc4c(Br)nn(-c5cc(C#N)c6ncccc6c5)c4n3)C2)CC1=O` [6-(3-bromo-6-(((1R,3R)-3-(4-methyl-3-oxo-piperazine-1-carbonyl)cyclopentyl)amino)-1H-pyrazolo[3,4-d]pyrimidin-1-yl)quinoline-8-carbonitrile] it was 0.025 to 0.2 µM; in that of `C[C@@H]1C(=O)N(C)CCN1C(=O)[C@@H]1CC[C@@H](Nc2ncc3c(Br)nn(-c4cc(C#N)c5ncccc5c4)c3n2)C1` [6-(3-bromo-6-(((1R,3R)-3-((R)-2,4-dimethyl-3-oxopiperazine-1-carbonyl)cyclopentyl)amino)-1H-pyrazolo[3,4-d]pyrimidin-1-yl) quinoline-8-carbonitrile], under 0.025 µM; in that of `C[C@H]1C(=O)N(C)CCN1C(=O)[C@@H]1CC[C@@H](Nc2ncc3c(Br)nn(-c4cc(C#N)c5ncccc5c4)c3n2)C1` [6-(3-bromo-6-(((1R,3R)-3-((S)-2,4-dimethyl-3-oxopiperazine-1-carbonyl)cyclopentyl)amino)-1H-pyrazolo[3,4-d]pyrimidin-1-yl) quinoline-8-carbonitrile], under 0.025 µM.
In the case of `N#Cc1cc(-n2nc(Br)c3cnc(N[C@@H]4CC[C@@H](C(=O)N5CCCC5)C4)nc32)cc2cccnc12` [6-(3-bromo-6-(((1R,3R)-3-(pyrrolidine-1-carbonyl)cyclopentyl)amino)-1H-pyrazolo [3,4-d]pyrimidin-1-yl)quinoline-8-carbonitrile] it was 0.025 to 0.2 µM; in that of `N#Cc1cc(-n2nc(Br)c3cnc(N[C@@H]4CC[C@@H](C(=O)N5CCC5)C4)nc32)cc2cccnc12` [6-(6-(((1R,3R)-3-(azetidine-1-carbonyl)cyclopentyl)amino)-3-bromo-1H-pyrazolo [3,4-d]pyrimidin-1-yl)quinoline-8-carbonitrile], 0.025 to 0.2 µM.
With `C[C@@H]1C(=O)N(C)CCN1C(=O)[C@@H]1CC[C@@H](Nc2ncc3c(Br)nn(-c4cc(C#N)c5ncccc5c4)c3n2)C1` [6-[3-bromo-6-[[(1R,3R)-3-[(2R)-2,4-dimethyl-3-oxo-piperazine-1-carbonyl]cyclopentyl]amino]pyrazolo[3,4-d]pyrimidin-1-yl] quinoline-8-carbonitrile], the IC50 was under 0.025 µM.
Under `CN1CCC2(CCN(C(=O)[C@@H]3CC[C@@H](Nc4ncc5c(Br)nn(-c6cc(F)c7ncccc7c6)c5n4)C3)C2)C1=O` (stereo partly drawn) [7-((1R,3R)-3-((3-bromo-1-(8-fluoroquinolin-6-yl)-1H-pyrazolo[3,4-d]pyrimidin-6-yl)amino)cyclopentane-1-carbonyl)-2-methyl-2,7-diazaspiro[4.4]nonan-1-one] stands 0.025 to 0.2 µM; under `O=C([C@@H]1CC[C@@H](Nc2ncc3c(Br)nn(-c4cc(F)c5ncccc5c4)c3n2)C1)N1CCN2C(=O)COCC2C1` (stereo partly drawn) [8-((1R,3R)-3-((3-bromo-1-(8-fluoroquinolin-6-yl)-1H-pyrazolo[3,4-d]pyrimidin-6-yl)amino)cyclopentane-1-carbonyl)hexahydropyrazino [2,1-c][1,4]oxazin-4(3H)-one], 0.025 to 0.2 µM; under `C[C@@]1(C(=O)N2CCN3C(=O)COCC3C2)CC[C@@H](Nc2ncc3c(Br)nn(-c4cc(F)c5ncccc5c4)c3n2)C1` (stereo partly drawn) [8-[(1R,3R)-3-[[3-bromo-1-(8-fluoro-6-quinolyl)pyrazolo[3,4-d]pyrimidin-6-yl]amino]-1-methyl-cyclopentane-carbonyl]-6,7,9,9a-tetrahydro-1H-pyrazino[2,1-c][1,4]oxazin-4-one], 0.025 to 0.2 µM.
In the case of `CNC(=O)[C@]1(C)CCC(Nc2ncc3c(Br)nn(-c4ccc5nn(CCN)cc5c4)c3n2)C1` (stereo partly drawn) [(1R)-3-[[1-[2-(2-aminoethyl)indazol-5-yl]-3-bromo-pyrazolo[3,4-d]pyrimidin-6-yl]amino]-N,1-dimethyl-cyclopentane-carboxamide] it was 0.025 to 0.2 µM; in that of `CNC(=O)[C@]1(C)CCC(Nc2ncc3c(Br)nn(-c4ccc5c(=O)[nH]ccc5c4)c3n2)C1` (stereo partly drawn) [(1R)-3-[[3-bromo-1-(1-oxo-2H-isoquinolin-6-yl)pyrazolo[3,4-d]pyrimidin-6-yl]amino]-N,1-dimethyl-cyclopentanecarboxamide], 0.025 to 0.2 µM.
In the case of `CNC(=O)[C@]1(C)CCC(Nc2ncc3c(Br)nn(-c4ccc5c(c4)CNC5=O)c3n2)C1` (stereo partly drawn) [(1R)-3-[[3-bromo-1-(1-oxoisoindolin-5-yl)pyrazolo[3,4-d]pyrimidin-6-yl]amino]-N,1-dimethyl-cyclopentanecarboxamide] it was 0.025 to 0.2 µM; in that of `CNC(=O)[C@]1(C)CCC(Nc2ncc3c(Br)nn(-c4ccc5c(c4)CCC(=O)N5)c3n2)C1` (stereo partly drawn) [(1R)-3-[[3-bromo-1-(2-oxo-3,4-dihydro-1H-quinolin-6-yl)pyrazolo[3,4-d]pyrimidin-6-yl]amino]-N,1-dimethyl-cyclopentane-carboxamide], 0.025 to 0.2 µM; in that of `CNC(=O)[C@]1(C)CCC(Nc2ncc3c(Br)nn(-c4ccc5c(c4)NC(=O)CC5)c3n2)C1` (stereo partly drawn) [(1R)-3-[[3-bromo-1-(2-oxo-3,4-dihydro-1H-quinolin-7-yl)pyrazolo[3,4-d]pyrimidin-6-yl]amino]-N,1-dimethyl-cyclopentane-carboxamide], 0.025 to 0.2 µM.
As for `CNC(=O)[C@]1(C)CCC(Nc2ncc3c(Br)nn(-c4cc(F)cc(C5COC5)c4)c3n2)C1` (stereo partly drawn) [(1R)-3-[[3-bromo-1-[3-fluoro-5-(oxetan-3-yl)phenyl]pyrazolo[3,4-d]pyrimidin-6-yl]amino]-N,1-dimethyl-cyclopentane-carboxamide], the IC50 fell in the range of 0.025 to 0.2 µM.
Under `COCCNC(=O)[C@@H]1CCC(Nc2ncc3c(Br)nn(-c4ccc(-c5nnc(C)s5)cc4)c3n2)C1` (stereo partly drawn) [(1R)-3-[[3-bromo-1-[4-(5-methyl-1,3,4-thiadiazol-2-yl)phenyl]pyrazolo[3,4-d]pyrimidin-6-yl]amino]-N-(2-methoxy-ethyl)cyclopentanecarboxamide] stands 0.025 to 0.2 µM.
In the case of `CNC(=O)[C@]1(C)CCC(Nc2ncc3c(Br)nn(-c4cnc(-c5nnc(C)s5)c(Cl)c4)c3n2)C1` (stereo partly drawn) [(1R)-3-[[3-bromo-1-[5-chloro-6-(5-methyl-1,3,4-thiadiazol-2-yl)-3-pyridyl]pyrazolo [3,4-d]pyrimidin-6-yl]amino]-N,1-dimethyl-cyclopentanecarboxamide] it was 0.025 to 0.2 µM; in that of `CNC(=O)[C@]1(C)CCC(Nc2ncc3c(Br)nn(-c4cnc(-c5nnc(C)s5)c(F)c4)c3n2)C1` (stereo partly drawn) [(1R)-3-[[3-bromo-1-[5-fluoro-6-(5-methyl-1,3,4-thiadiazol-2-yl)-3-pyridyl]pyrazolo [3,4-d]pyrimidin-6-yl]amino]-N,1-dimethyl-cyclopentanecarboxamide], 0.025 to 0.2 µM.
Under `O[C@@H]1CCC[C@@H]1Nc1ncc2c(Br)nn(-c3cc(F)c4ncccc4c3)c2n1` [(1R,2S)-2-[[3-bromo-1-(8-fluoro-6-quinolyl)pyrazolo[3,4-d]pyrimidin-6-yl]amino]cyclopentanol] stands 0.025 to 0.2 µM.
With `CC[C@@]1(C(=O)NC)CC[C@@H](Nc2ncc3c(I)nn(-c4cc(F)c5ncccc5c4)c3n2)C1` [(1R,3R)-1-ethyl-3-[[1-(8-fluoro-6-quinolyl)-3-iodo-pyrazolo[3,4-d]pyrimidin-6-yl]amino]-N-methyl-cyclopentanecarboxamide], the IC50 was under 0.025 µM.
On to `COCCNC(=O)[C@@H]1CC[C@@H](Nc2ncc3c(Br)nn(-c4ccc(-n5cccn5)cc4)c3n2)C1` [(1R,3R)-3-((1-(4-(1H-pyrazol-1-yl)phenyl)-3-bromo-1H-pyrazolo[3,4-d]pyrimidin-6-yl)amino)-N-(2-methoxyethyl)cyclopentane-1-carboxamide], for which the IC50 was 0.2 to 0.5 µM.
Under `COCCNC(=O)[C@@H]1CC[C@@H](Nc2ncc3c(Br)nn(-c4ccc(-c5ccn[nH]5)cc4)c3n2)C1` [(1R,3R)-3-((1-(4-(1H-pyrazol-5-yl)phenyl)-3-bromo-1H-pyrazolo[3,4-d]pyrimidin-6-yl)amino)-N-(2-methoxyethyl)cyclopentane-1-carboxamide] stands 0.2 to 0.5 µM; under `CNC(=O)[C@@H]1CC[C@@H](Nc2ncc3c(Br)nn(-c4ccc(-c5nnn[nH]5)cc4)c3n2)C1` [(1R,3R)-3-((1-(4-(1H-tetrazol-5-yl)phenyl)-3-bromo-1H-pyrazolo[3,4-d]pyrimidin-6-yl)amino)-N-methylcyclopentane-1-carboxamide], 0.025 to 0.2 µM; under `CS(=O)(=O)CCNC(=O)[C@@H]1CC[C@@H](Nc2ncc3c(Br)nn(-c4cnn(-c5ccncc5)c4)c3n2)C1` [(1R,3R)-3-((3-bromo-1-(1-(pyridin-4-yl)-1H-pyrazol-4-yl)-1H-pyrazolo[3,4-d]pyrimidin-6-yl)amino)-N-(2-(methylsulfonyl)ethyl)cyclo-pentane-1-carboxamide], 0.2 to 0.5 µM.
